# Test results taken from patent US7514448B2, “Azaindoles useful as inhibitors of rock and other protein kinases” (Vertex Pharmaceuticals Incorporated, priority 2004, dated 2009).
# Tests used:
# Assay type in all cases: biochemical
# ROCK I (AA 6-553) = ROCK I (AA 6-553) (Homo sapiens, UniProt Q13464); assay: ROCK inhibition assay, coupled enzyme system ("Enzyme"); conditions: enzyme-linked assay; average Ki if more than one determined
# Method: Reactions were carried out in a solution containing 100 mM HEPES (pH 7.5), 10 mM MgCl2, 25 mM NaCl, 2 mM DTT and 1.5% DMSO.
# (§1) If more than one value of Ki has been determined, the average Ki is indicated. If no value is indicated, then the Ki was not determined.
# PKA = PKA (Homo sapiens, UniProt P17612); assay: PKA inhibition assay, coupled enzyme; conditions: average Ki if more than one determined
# Method: Compounds were screened for their ability to inhibit PKA using a standard coupled enzyme assay (Fox et al., Protein Sci, 1998, 7, 2249). Assays were carried out in a mixture of 100 mM HEPES (pH 7.5), 10 mM MgCl2, 25 mM NaCl, 1 mM DTT and 3% DMSO. Final substrate concentrations in the assay were 50 μM ATP (Sigma Chemicals) and 80 μM peptide (Kemptide, American Peptide, Sunnyvale, Calif.). Assays were carried out at 30° C. and 18 nM PKA. Final concentrations of the components of the coupled enzyme system were 2.5 mM phosphoenolpyruvate, 300 μM NADH, 30 μg/ml pyruvate kinase and 10 μg/ml lactate dehydrogenase.
# An assay stock buffer solution was prepared containing all of the reagents listed above, with the exception of ATP, and the test compound of the present invention. […] The plate was preincubated for 10 minutes at 30° C. and the reaction initiated by addition of 5 μl of ATP (final concentration 50 μM). Initial reaction rates were determined with a Molecular Devices SpectraMax Plus plate reader over a 15 minute time course. IC50 and Ki data were calculated from non-linear regression analysis using the Prism software package (GraphPad Prism version 3.0a for Macintosh, GraphPad Software, San Diego Calif., USA).
# ROCK = ROCK (Homo sapiens, UniProt Q13464); assay: ROCK radioactive assay ("33P"); conditions: radioactive assay; average Ki if more than one determined; read-out: ROCK 33P Ki
# Chain of ROCK (Q13464 whole entry): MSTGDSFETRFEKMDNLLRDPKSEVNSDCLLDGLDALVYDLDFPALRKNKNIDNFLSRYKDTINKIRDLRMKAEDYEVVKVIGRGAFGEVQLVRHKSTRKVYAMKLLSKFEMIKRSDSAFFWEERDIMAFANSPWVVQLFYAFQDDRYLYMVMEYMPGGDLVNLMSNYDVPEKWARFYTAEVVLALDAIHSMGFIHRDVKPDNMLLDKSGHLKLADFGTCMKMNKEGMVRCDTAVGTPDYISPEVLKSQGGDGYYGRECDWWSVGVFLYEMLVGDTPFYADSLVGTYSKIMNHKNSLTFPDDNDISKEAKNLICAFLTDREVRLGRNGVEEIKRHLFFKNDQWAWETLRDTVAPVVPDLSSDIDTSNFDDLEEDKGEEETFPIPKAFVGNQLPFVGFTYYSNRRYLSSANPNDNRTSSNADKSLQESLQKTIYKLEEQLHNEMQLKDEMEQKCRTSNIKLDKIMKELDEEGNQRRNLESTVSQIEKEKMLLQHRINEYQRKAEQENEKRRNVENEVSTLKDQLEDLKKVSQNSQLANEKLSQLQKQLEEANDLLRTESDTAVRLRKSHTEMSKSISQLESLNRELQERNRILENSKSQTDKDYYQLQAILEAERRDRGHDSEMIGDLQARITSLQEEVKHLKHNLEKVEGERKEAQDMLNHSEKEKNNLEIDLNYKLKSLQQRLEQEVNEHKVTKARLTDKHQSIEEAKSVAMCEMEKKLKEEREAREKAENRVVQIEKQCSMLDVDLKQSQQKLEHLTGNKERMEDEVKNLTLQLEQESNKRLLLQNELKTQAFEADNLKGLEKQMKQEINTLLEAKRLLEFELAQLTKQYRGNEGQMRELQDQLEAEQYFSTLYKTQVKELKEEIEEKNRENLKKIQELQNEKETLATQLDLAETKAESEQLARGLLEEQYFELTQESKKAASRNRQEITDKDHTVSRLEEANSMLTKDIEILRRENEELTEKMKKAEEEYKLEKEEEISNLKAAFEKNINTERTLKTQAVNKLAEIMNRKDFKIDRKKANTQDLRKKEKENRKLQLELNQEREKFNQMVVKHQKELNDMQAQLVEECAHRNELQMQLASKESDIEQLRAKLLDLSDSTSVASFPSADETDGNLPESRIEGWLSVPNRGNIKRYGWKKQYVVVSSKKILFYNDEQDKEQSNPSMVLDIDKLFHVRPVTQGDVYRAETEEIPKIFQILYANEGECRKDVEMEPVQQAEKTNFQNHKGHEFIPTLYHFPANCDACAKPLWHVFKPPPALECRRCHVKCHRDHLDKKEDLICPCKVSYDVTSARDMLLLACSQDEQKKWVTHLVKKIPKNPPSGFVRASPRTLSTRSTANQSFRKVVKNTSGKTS
# Source text: as §1
# Chain of ROCK I (AA 6-553) (Q13464 6-553, species assumed): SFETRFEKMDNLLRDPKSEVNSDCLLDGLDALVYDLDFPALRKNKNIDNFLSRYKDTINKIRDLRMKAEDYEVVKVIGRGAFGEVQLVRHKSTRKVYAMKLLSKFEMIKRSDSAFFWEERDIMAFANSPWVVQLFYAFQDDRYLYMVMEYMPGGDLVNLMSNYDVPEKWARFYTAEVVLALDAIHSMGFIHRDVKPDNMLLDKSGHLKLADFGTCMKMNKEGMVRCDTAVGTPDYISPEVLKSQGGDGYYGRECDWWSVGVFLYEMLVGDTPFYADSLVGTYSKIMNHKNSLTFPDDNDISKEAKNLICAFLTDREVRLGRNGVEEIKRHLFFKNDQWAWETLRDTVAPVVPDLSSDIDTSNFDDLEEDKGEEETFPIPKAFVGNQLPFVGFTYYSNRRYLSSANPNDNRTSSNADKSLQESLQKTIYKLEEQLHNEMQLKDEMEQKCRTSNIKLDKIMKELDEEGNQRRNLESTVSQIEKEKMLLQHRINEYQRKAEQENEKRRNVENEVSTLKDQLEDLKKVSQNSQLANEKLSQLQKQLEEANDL
Structure (SMILES),Ki (ROCK I (AA 6-553)),Ki (PKA),Ki (ROCK)
O=C(Cc1ccccc1)Nc1nnc(-c2c[nH]c3ncccc23)s1 [II-8],< 0.5 µM,< 0.5 µM,
O=C(Cc1cccc(O)c1)N(c1nc(-c2c[nH]c3ncccc23)cs1)C1CC1 [II-68],< 0.5 µM,< 0.5 µM,
CCN(CC)S(=O)(=O)c1cccc(CC(=O)Nc2nc(-c3c[nH]c4nccc(Cl)c34)cs2)c1 [II-93],0.5 to 5 µM,0.5 to 5 µM,
O=C(NCc1cccc(S(=O)(=O)N2CCOCC2)c1)c1cc(-c2c[nH]c3ncccc23)cs1 [II-80],< 0.5 µM,0.5 to 5 µM,
CN(c1cccc(CC(=O)Nc2nc(-c3c[nH]c4ncccc34)cs2)c1)S(C)(=O)=O [II-113],< 0.5 µM,< 0.5 µM,
O=C(Cc1cccc(S(=O)(=O)N2CCOCC2)c1)Nc1csc(-c2c[nH]c3ncccc23)n1 [II-57],< 0.5 µM,0.5 to 5 µM,
O=C(Cc1cccc(S(=O)(=O)N2CCOCC2)c1)Nc1nc(-c2c[nH]c3ncc(Cl)cc23)cs1 [II-105],< 0.5 µM,0.5 to 5 µM,
O=C(Cc1ccc(F)cc1)Nc1nc(-c2c[nH]c3ncccc23)cs1 [I-4],< 0.5 µM,< 0.5 µM,
Cc1sc(NC(=O)Cc2cccc(NS(C)(=O)=O)c2)nc1-c1c[nH]c2ncccc12 [II-100],< 0.5 µM,0.5 to 5 µM,
O=C(NCCc1cccc(F)c1)c1ccc(-c2c[nH]c3ncccc23)s1 [II-32],< 0.5 µM,< 0.5 µM,
O=C(Cc1ccc(F)cc1F)N(c1nc(-c2c[nH]c3ncccc23)cs1)C1CC1 [II-45],< 0.5 µM,< 0.5 µM,
CC(C)S(=O)(=O)Nc1ccc(CC(=O)Nc2nc(-c3c[nH]c4ncccc34)cs2)c(Cl)c1 [II-48],< 0.5 µM,< 0.5 µM,
c1coc(CNc2nc(-c3c[nH]c4ncccc34)cs2)c1 [II-199],,0.5 to 5 µM,< 0.5 µM
O=C(Nc1nc(-c2c[nH]c3ncccc23)cs1)N1CCCCC1 [II-238],,0.5 to 5 µM,0.5 to 5 µM
CC(C)NC(=O)Nc1nc(-c2c[nH]c3ncccc23)cs1 [II-244],,0.5 to 5 µM,< 0.5 µM
NCCC(C(=O)Nc1nc(-c2c[nH]c3ncccc23)cs1)c1ccc(F)cc1F (centres unmarked) [II-191],,< 0.5 µM,< 0.5 µM
O=C1CC[C@@H](C(=O)Nc2nc(-c3c[nH]c4ncccc34)cs2)O1 [II-146],,0.5 to 5 µM,< 0.5 µM
NCC(C(=O)Nc1nc(-c2c[nH]c3ncccc23)cs1)c1ccccc1Cl (centres unmarked) [II-194],,< 0.5 µM,< 0.5 µM
CC(C)S(=O)(=O)NCC(=O)Nc1nc(-c2c[nH]c3ncccc23)cs1 [II-220],,< 0.5 µM,< 0.5 µM

Structure (SMILES),Ki (ROCK I (AA 6-553)),Ki (PKA),Ki (ROCK)
CCNC(=O)Nc1nc(-c2c[nH]c3ncccc23)cs1 [II-234],,0.5 to 5 µM,0.5 to 5 µM
CS(=O)(=O)N[C@@H](COCc1ccccc1)C(=O)Nc1nc(-c2c[nH]c3ncccc23)cs1 [II-233],,< 0.5 µM,< 0.5 µM
NCCC(=O)Nc1nc(-c2c[nH]c3ncccc23)cs1 [II-180],,< 0.5 µM,< 0.5 µM
CN(CC(=O)Nc1nc(-c2c[nH]c3ncccc23)cs1)S(C)(=O)=O [II-231],,< 0.5 µM,< 0.5 µM
O=C(Cc1cccc(OCCCC2CCNCC2)c1)Nc1nnc(-c2c[nH]c3ncccc23)s1 [II-22],< 0.5 µM,,
CO[C@@H](C)C(=O)Nc1nc(-c2c[nH]c3ncccc23)cs1 [II-144],,0.5 to 5 µM,< 0.5 µM
O=C(NCCO)Nc1nc(-c2c[nH]c3ncccc23)cs1 [II-235],,0.5 to 5 µM,0.5 to 5 µM
CS(=O)(=O)Nc1cccc(C(O)C(=O)Nc2nc(-c3c[nH]c4ncccc34)cs2)c1 (centres unmarked) [II-211],,< 0.5 µM,< 0.5 µM
O=C1CC[C@H](C(=O)Nc2nc(-c3c[nH]c4ncccc34)cs2)O1 [II-155],,< 0.5 µM,< 0.5 µM
CCCC(C(=O)Nc1nc(-c2c[nH]c3ncccc23)cs1)S(C)(=O)=O (centres unmarked) [II-224],,0.5 to 5 µM,< 0.5 µM
CCS(=O)(=O)NCC(=O)Nc1nc(-c2c[nH]c3ncccc23)cs1 [II-218],,< 0.5 µM,< 0.5 µM
O=C1CC[C@@H](C(=O)Nc2nc(-c3c[nH]c4ncccc34)cs2)N1 [II-148],,< 0.5 µM,< 0.5 µM
CN1CCN(CCOc2cccc(CC(=O)Nc3nc(-c4c[nH]c5ncc(F)cc45)cs3)c2)CC1 [II-136],,0.5 to 5 µM,< 0.5 µM
O=C(Nc1nc(-c2c[nH]c3ncccc23)cs1)N1CCOCC1 [II-236],,0.5 to 5 µM,0.5 to 5 µM
CNCC(=O)Nc1nc(-c2c[nH]c3ncccc23)cs1 [II-179],,< 0.5 µM,< 0.5 µM
NCCC(C(=O)Nc1nc(-c2c[nH]c3ncccc23)cs1)c1ccccc1 (centres unmarked) [II-189],,< 0.5 µM,< 0.5 µM
c1cnc2[nH]cc(-c3csc(NCCCN4CCOCC4)n3)c2c1 [II-197],,0.5 to 5 µM,0.5 to 5 µM
C[C@@H](NS(C)(=O)=O)C(=O)Nc1nc(-c2c[nH]c3ncccc23)cs1 [II-228],,< 0.5 µM,< 0.5 µM
NCCC(C(=O)Nc1nc(-c2c[nH]c3ncccc23)cs1)c1ccccc1Cl (centres unmarked) [II-192],,< 0.5 µM,< 0.5 µM

Structure (SMILES),Ki (ROCK I (AA 6-553)),Ki (PKA),Ki (ROCK)
CC(=O)Nc1nc(-c2c[nH]c3ncccc23)cs1 [II-134],,0.5 to 5 µM,< 0.5 µM
O=C1C[C@H](C(=O)Nc2nc(-c3c[nH]c4ncccc34)cs2)N1 [II-152],,< 0.5 µM,< 0.5 µM
CC(C)[C@H](NS(C)(=O)=O)C(=O)Nc1nc(-c2c[nH]c3ncccc23)cs1 [II-223],,< 0.5 µM,< 0.5 µM
CS(=O)(=O)CC(=O)Nc1nc(-c2c[nH]c3ncccc23)cs1 [II-161],,< 0.5 µM,< 0.5 µM
O=C(Nc1nc(-c2c[nH]c3ncccc23)cs1)C1CCCO1 (centres unmarked) [II-154],,< 0.5 µM,< 0.5 µM
COCC(=O)Nc1nc(-c2c[nH]c3ncccc23)cs1 [II-142],,0.5 to 5 µM,< 0.5 µM
CC(C(=O)Nc1nc(-c2c[nH]c3ncccc23)cs1)S(C)(=O)=O (centres unmarked) [II-226],,< 0.5 µM,< 0.5 µM
NC(C(=O)Nc1nc(-c2c[nH]c3ncccc23)cs1)c1ccc(F)cc1 (centres unmarked) [II-213],,< 0.5 µM,< 0.5 µM
CC(=O)N[C@H](C)C(=O)Nc1nc(-c2c[nH]c3ncccc23)cs1 [II-156],,0.5 to 5 µM,< 0.5 µM
NCC(C(=O)Nc1nc(-c2c[nH]c3ncccc23)cs1)c1ccc(F)cc1Cl (centres unmarked) [II-196],,< 0.5 µM,< 0.5 µM
CN1CCN(CCCN(C(=O)Cc2ccccc2)c2nc(-c3c[nH]c4ncccc34)cs2)CC1 [II-201],,< 0.5 µM,< 0.5 µM
O=C(NC1CCNCC1)c1nc(-c2c[nH]c3ncccc23)cs1 [II-187],,< 0.5 µM,< 0.5 µM
COc1cccc(CNC(=O)c2csc(-c3c[nH]c4ncccc34)n2)c1 [II-21],< 0.5 µM,,
CCC(=O)Nc1nc(-c2c[nH]c3ncccc23)cs1 [II-163],,0.5 to 5 µM,< 0.5 µM
O=C(Cc1cccc(NS(=O)(=O)CCCN2CCCCC2)c1)Nc1nc(-c2c[nH]c3ncccc23)cs1 [II-168],,< 0.5 µM,< 0.5 µM
CS(=O)(=O)NCC(=O)Nc1nc(-c2c[nH]c3ncccc23)cs1 [II-217],,< 0.5 µM,< 0.5 µM
NCC(C(=O)Nc1nc(-c2c[nH]c3ncccc23)cs1)c1cccc(Cl)c1Cl (centres unmarked) [II-195],,< 0.5 µM,< 0.5 µM
COc1cccc(C(O)C(=O)Nc2nc(-c3c[nH]c4ncccc34)cs2)c1 (centres unmarked) [II-208],,< 0.5 µM,< 0.5 µM
